Measured values: patent US7115622B2, “Amido ether substituted imidazoquinolines” (3M Innovative Properties Company, priority 2000, dated 2006)

Experiments:
interferon (α) = assay: Cytokine Induction in Human Cells: interferon induction in PBMC; assay type: cell-based; parameters: key to Lowest Effective Concentration (μM) Interferon: *: no induction was seen at any of the tested concentrations; generally the highest concentration tested was 10 or 30 μM; settings: 18 to 24 hours incubation, tested 30–0.014 μM, ELISA; for minimal effective concentration: read-out: Lowest Effective Concentration (μM) Interferon
Source text: (§1) An in vitro human blood cell system is used to assess cytokine induction. Activity is based on the measurement of interferon and tumor necrosis factor (α) (IFN and TNF, respectively) secreted into culture media as described by Testerman et. al. In “Cytokine Induction by the Immunomodulators Imiquimod and S-27609”, Journal of Leukocyte Biology, 58, 365–372 (September, 1995).
(§2) Whole blood from healthy human donors is collected by venipuncture into EDTA vacutainer tubes. Peripheral blood mononuclear cells (PBMC) are separated from whole blood by density gradient centrifugation using Histopaque®-1077. Blood is diluted 1:1 with Dulbecco's Phosphate Buffered Saline (DPBS) or Hank's Balanced Salts Solution (HBSS). The PBMC layer is collected and washed twice with DPBS or HBSS and resuspended at 4×10^6 cells/mL in RPMI complete. The PBMC suspension is added to 48 well flat bottom sterile tissue culture plates (Costar, Cambridge, Mass. or Becton Dickinson Labware, Lincoln Park, N.J.) containing an equal volume of RPMI complete media containing test compound.
(§3) The compounds are solubilized in dimethyl sulfoxide (DMSO). The DMSO concentration should not exceed a final concentration of 1% for addition to the culture wells. The compounds are generally tested at concentrations ranging from 30–0.014 μM.
(§4) The solution of test compound is added at 60 μM to the first well containing RPMI complete and serial 3 fold dilutions are made in the wells. The PBMC suspension is then added to the wells in an equal volume, bringing the test compound concentrations to the desired range (30–0.014 μM). The final concentration of PBMC suspension is 2×10^6 cells/mL. The plates are covered with sterile plastic lids, mixed gently and then incubated for 18 to 24 hours at 37° C. in a 5% carbon dioxide atmosphere.
(§5) Following incubation the plates are centrifuged for 10 minutes at 1000 rpm (˜200×g) at 4° C. The cell-free culture supernatant is removed with a sterile polypropylene pipet and transferred to sterile polypropylene tubes. Samples are maintained at −30 to −70° C. until analysis. The samples are analyzed for interferon (α) by ELISA and for tumor necrosis factor (α) by ELISA or IGEN Assay
Interferon (α) and Tumor Necrosis Factor (α) Analysis by ELISA Interferon (α) concentration is determined by ELISA using a Human Multi-Species kit from PBL Biomedical Laboratories, New Brunswick, N.J. Results are expressed in pg/mL.
(§6) The table below lists the lowest concentration found to induce interferon and the lowest concentration found to induce tumor necrosis factor for each compound.

[1] = system: tumor necrosis factor (α); assay: Cytokine Induction in Human Cells: tumor necrosis factor induction in PBMC; assay type: cell-based; parameters: key to Lowest Effective Concentration (μM) Tumor Necrosis Factor: *: no induction was seen at any of the tested concentrations; generally the highest concentration tested was 10 or 30 μM; settings: 18 to 24 hours incubation, tested 30–0.014 μM, ELISA or IGEN assay; for minimal effective concentration: read-out: Lowest Effective Concentration (μM) Tumor Necrosis Factor
Source text: as §1, §2, §3, §4, §5
Tumor necrosis factor (α) (TNF) concentration is determined using ELISA kits available from Biosource International, Camarillo, Calif. Alternately, the TNF concentration can be determined by Origen® M-Series Immunoassay and read on an IGEN M-8 analyzer from IGEN International, Gaithersburg, Md. The immunoassay uses a human TNF capture and detection antibody pair from Biosource International, Camarillo, Calif. Results are expressed in pg/mL.
as §6

| Structure (SMILES) | minimal effective concentration (interferon (α)) | minimal effective concentration [1] | Lowest Effective Concentration (μM) Tumor Necrosis Factor [1] | Lowest Effective Concentration (μM) Interferon (interferon (α)) |
| --- | --- | --- | --- | --- |
| Nc1nc2ccccc2c2c1ncn2CCOCCNC(=O)COCc1ccccc1 [Example 62] | 1 µM | 10 µM | – | – |
| CCCCN(C(=O)CCCCOCCn1cnc2c(N)nc3ccccc3c21)c1ccccc1 [Example 13, 5-[2-(4-amino-1H-imidazo[4,5-c]quinolin-1-yl)ethoxy]-N-butyl-N-phenylpentanamide] | 10 µM | – | * | – |
| CCC(COCCC1CCN(C(=O)c2ccc(F)cc2)CC1)n1cnc2c(N)nc3ccccc3c21 (stereo not drawn) [Example 40] | 1 µM | 1 µM | – | – |
| CCC(COCCC1CCN(C(=O)c2ccc(OC)cc2)CC1)n1cnc2c(N)nc3ccccc3c21 (stereo not drawn) [Example 44] | 1 µM | 1 µM | – | – |
| Nc1nc2ccccc2c2c1ncn2CCOCCNC(=O)Cc1cccs1 [Example 56] | 1 µM | 10 µM | – | – |
| CCC(COCCC1CCN(C(=O)C2CCCC2)CC1)n1cnc2c(N)nc3ccccc3c21 (stereo not drawn) [Example 37] | 1 µM | 1 µM | – | – |
| CCCCc1nc2c(N)nc3ccccc3c2n1CCOCCNC(=O)c1cccc2ccccc12 [Example 31] | – | 10 µM | – | * |
| CCC(COCCC1CCN(C(=O)C2CC2)CC1)n1cnc2c(N)nc3ccccc3c21 (stereo not drawn) [Example 35] | 0.1 µM | 1 µM | – | – |
| CCC(COCCC1CCN(C(=O)c2cccnc2)CC1)n1cnc2c(N)nc3ccccc3c21 (stereo not drawn) [Example 46] | 0.1 µM | 1 µM | – | – |
| CCCCc1nc2c(N)nc3ccccc3c2n1CCOCCNC(=O)COCc1ccccc1 [Example 30] | 1 µM | 10 µM | – | – |
| CCCCc1nc2c(N)nc3ccccc3c2n1CCOCCNC(=O)CCc1ccccc1 [Example 25] | 1 µM | 10 µM | – | – |
| CCCCc1nc2c(N)nc3ccccc3c2n1CCOCCNC(=O)c1ccc(C#N)cc1 [Example 23] | 1 µM | 10 µM | – | – |
| CCCCc1nc2c(N)nc3ccccc3c2n1CCOCCNC(=O)c1ccc(Cl)nc1 [Example 28] | 1 µM | 10 µM | – | – |
| CCCCc1nc2c(N)nc3ccccc3c2n1CCOCCNC(=O)Cc1cccs1 [Example 22] | 0.1 µM | 10 µM | – | – |
| CCCCc1nc2c(N)nc3ccccc3c2n1CCOCCNC(=O)c1ccc(F)cc1 [Example 21] | 1 µM | 10 µM | – | – |
| Nc1nc2ccccc2c2c1ncn2CCOCCNC(=O)CCc1ccccc1 [Example 58] | 10 µM | 10 µM | – | – |
| CCCCc1nc2c(N)nc3ccccc3c2n1CCOCCNC(=O)c1cccc(C#N)c1 [Example 24] | 1 µM | 10 µM | – | – |
| Nc1nc2ccccc2c2c1ncn2CCOCCNC(=O)c1ccc2ccccc2c1 [Example 63] | – | 10 µM | – | * |
| Nc1nc2ccccc2c2c1ncn2CCOCCNC(=O)c1ccc(Cl)nc1 [Example 61] | 10 µM | 10 µM | – | – |
| CCC(COCCC1CCN(C(=O)c2cccc(C#N)c2)CC1)n1cnc2c(N)nc3ccccc3c21 (stereo not drawn) [Example 42] | 1 µM | 1 µM | – | – |
| CCC(COCCC1CCN(C(=O)c2ccc(Cl)nc2)CC1)n1cnc2c(N)nc3ccccc3c21 (stereo not drawn) [Example 45] | 0.1 µM | 1 µM | – | – |

| Structure (SMILES) | minimal effective concentration (interferon (α)) | minimal effective concentration [1] | Lowest Effective Concentration (μM) Tumor Necrosis Factor [1] | Lowest Effective Concentration (μM) Interferon (interferon (α)) |
| --- | --- | --- | --- | --- |
| COc1ccc(C(=O)NCCOCCn2cnc3c(N)nc4ccccc4c32)cc1 [Example 60] | 10 µM | 10 µM | – | – |
| CCC(COCCC1CCN(C(=O)Cc2cccs2)CC1)n1cnc2c(N)nc3ccccc3c21 (stereo not drawn) [Example 41] | 0.1 µM | 1 µM | – | – |
| CCCCc1nc2c(N)nc3ccccc3c2n1CCOCCNC(=O)c1ccccc1 [Example 18] | 1 µM | 10 µM | – | – |
| CCCCc1nc2c(N)nc3ccccc3c2n1CCOCCNC(=O)c1ccc(C(F)(F)F)cc1 [Example 33] | – | 10 µM | – | * |
| CCCCc1nc2c(N)nc3ccccc3c2n1CCOCCNC(=O)Cc1ccccc1 [Example 20] | 0.1 µM | 10 µM | – | – |
| CCCCC(=O)NCCOCCn1c(CCCC)nc2c(N)nc3ccccc3c21 [Example 16] | 0.1 µM | 1 µM | – | – |
| CCC(COCCC1CCN(C(=O)c2ccccc2)CC1)n1cnc2c(N)nc3ccccc3c21 (stereo not drawn) [Example 38] | 1 µM | 10 µM | – | – |
| Nc1nc2ccccc2c2c1ncn2CCOCCNC(=O)C1CCCCC1 [Example 54] | 10 µM | 10 µM | – | – |
| CCCCc1nc2c(N)nc3ccccc3c2n1CCOCCNC(=O)c1cccc(OC)c1 [Example 26] | 1 µM | 10 µM | – | – |
| CCCCc1nc2c(N)nc3ccccc3c2n1CCOCCNC(=O)[C@@H]1C[C@H]1c1ccccc1 [Example 29] | 1 µM | 10 µM | – | – |
| Nc1nc2ccccc2c2c1ncn2CCOCCNC(=O)c1ccc(C(F)(F)F)cc1 [Example 65] | – | – | * | * |
| Nc1nc2ccccc2c2c1ncn2CCOCCNC(=O)c1ccccc1 [Example 53] | 10 µM | 10 µM | – | – |
| CCCCc1nc2c(N)nc3ccccc3c2n1CCOCCNC(=O)C1CCCC1 [Example 17] | 1 µM | 1 µM | – | – |
| CCC(COCCC1CCN(C(=O)[C@@H]2C[C@H]2c2ccccc2)CC1)n1cnc2c(N)nc3ccccc3c21 (stereo partly drawn) [Example 47] | 1 µM | – | * | – |
| CN(C(=O)CCCCOCCn1cnc2c(N)nc3ccccc3c21)c1ccccc1 [Example 12, 5-[2-(4-amino-1H-imidazo[4,5-c]quinolin-1-yl)ethoxy]-N-methyl-N-phenylpentanamide] | 3.33 µM | – | * | – |
| Nc1nc2ccccc2c2c1ncn2CCOCCNC(=O)c1ccc(OC(F)(F)F)cc1 [Example 66] | – | – | * | * |
| COc1cccc(C(=O)NCCOCCn2cnc3c(N)nc4ccccc4c32)c1 [Example 59] | 10 µM | 10 µM | – | – |
| CCCCc1nc2c(N)nc3ccccc3c2n1CCOCCNC(=O)c1cccc(C(F)(F)F)c1 [Example 32] | – | 10 µM | – | * |
| CCC(COCCC1CCN(C(=O)c2cccc(C(F)(F)F)c2)CC1)n1cnc2c(N)nc3ccccc3c21 (stereo not drawn) [Example 50] | 1 µM | 1 µM | – | – |
| CCC(COCCC1CCN(C(=O)Cc2ccccc2)CC1)n1cnc2c(N)nc3ccccc3c21 (stereo not drawn) [Example 39] | 1 µM | 10 µM | – | – |
| CCC(COCCC1CCN(C(=O)c2ccc(OC(F)(F)F)cc2)CC1)n1cnc2c(N)nc3ccccc3c21 (stereo not drawn) [Example 51] | 10 µM | 10 µM | – | – |
